From ChEMBL document CHEMBL1124001, “Synthesis and antileukemic activity of bis[[(carbamoyl)oxy]methyl]- substituted pyrrolo[2,1-a]isoquinolines, pyrrolo[1,2-a]quinolines, pyrrolo[2,1-a]isobenzazepines, and pyrrolo[1,2-a]benzazepines” (J Med Chem, 1988)

Assays:
Mus musculus [1] = test: Toxicity day survivors was determined by the ratio of animals survived to that of test animals at 1.87 mg/kg intraperitoneally in CD2F1 mice; 6/6; assay type: organism-based; set-up: dose 1.87 mg/kg, route intraperitoneal; conditions: in vivo, ip
Mus musculus [2] = test: Body weight change of test animals to that of control was determined after injection at 7.5 mg/kg intraperitoneally in CD2F1 mice; assay type: functional; conditions: route intraperitoneal
Mus musculus [3] = test: Net log cell kill was determined after injecting 3.75 mg/kg intraperitoneally in CD2F1 mice; assay type: functional; conditions: route intraperitoneal
Mus musculus [4] = test: Ratio of treated to that of untreated tumor-bearing control animals at 1.87 mg/kg intraperitoneally in CD2F1 mice was determined; assay type: functional; conditions: route intraperitoneal
Mus musculus [5] = test: Toxicity day survivors was determined by the ratio of animals survived to that of test animals at 15 mg/kg intraperitoneally in CD2F1 mice; 6/6; assay type: organism-based; set-up: dose 15 mg/kg, route intraperitoneal; conditions: in vivo, ip
Mus musculus [6] = test: Net log cell kill was determined after injecting 7.5 mg/kg intraperitoneally in CD2F1 mice; assay type: functional; conditions: route intraperitoneal
Mus musculus [7] = test: Body weight change of test animals to that of control was determined after injection at 15 mg/kg intraperitoneally in CD2F1 mice; assay type: functional; conditions: route intraperitoneal
Mus musculus [8] = test: Body weight change of test animals to that of control was determined after injection at 60 mg/kg intraperitoneally in CD2F1 mice; assay type: functional; conditions: route intraperitoneal
Mus musculus [9] = test: Body weight change of test animals to that of control was determined after injection at 1.87 mg/kg intraperitoneally in CD2F1 mice; assay type: functional; conditions: route intraperitoneal
Mus musculus [10] = test: Toxicity day survivors was determined by the ratio of animals survived to that of test animals at 7.5 mg/kg intraperitoneally in CD2F1 mice; 6/6; assay type: organism-based; set-up: dose 7.5 mg/kg, route intraperitoneal; conditions: in vivo, ip
Mus musculus [11] = test: Body weight change of test animals to that of control was determined after injection at 3.75 mg/kg intraperitoneally in CD2F1 mice; assay type: functional; conditions: route intraperitoneal
Mus musculus [12] = test: Ratio of treated to that of untreated tumor-bearing control animals at 15 mg/kg intraperitoneally in CD2F1 mice was determined; assay type: functional; conditions: route intraperitoneal
Mus musculus [13] = test: Toxicity day survivors was determined by the ratio of animals survived to that of test animals at 3.75 mg/kg intraperitoneally in CD2F1 mice; 6/6; assay type: organism-based; set-up: dose 3.75 mg/kg, route intraperitoneal; conditions: in vivo, ip
Mus musculus [14] = test: Net log cell kill was determined after injecting 1.87 mg/kg intraperitoneally in CD2F1 mice; assay type: functional; conditions: route intraperitoneal
Mus musculus [15] = test: Ratio of treated to that of untreated tumor-bearing control animals at 3.75 mg/kg intraperitoneally in CD2F1 mice was determined; assay type: functional; conditions: route intraperitoneal
Mus musculus [16] = test: Ratio of treated to that of untreated tumor-bearing control animals at 7.5 mg/kg intraperitoneally in CD2F1 mice was determined; assay type: functional; conditions: route intraperitoneal
Mus musculus [17] = test: Net log cell kill was determined after injecting 15 mg/kg intraperitoneally in CD2F1 mice; assay type: functional; conditions: route intraperitoneal
Mus musculus [18] = test: Toxicity day survivors was determined by the ratio of animals survived to that of test animals at 60 mg/kg intraperitoneally in CD2F1 mice; 4/6; assay type: organism-based; set-up: dose 60 mg/kg, route intraperitoneal; conditions: in vivo, ip
Mus musculus [19] = test: Net log cell kill was determined after injecting 240 mg/kg intraperitoneally in CD2F1 mice; assay type: functional; conditions: route intraperitoneal
Mus musculus [20] = test: Ratio of treated to that of untreated tumor-bearing control animals at 240 mg/kg intraperitoneally in CD2F1 mice was determined; assay type: functional; conditions: route intraperitoneal
Mus musculus [21] = test: Body weight change of test animals to that of control was determined after injection at 480 mg/kg intraperitoneally in CD2F1 mice; assay type: functional; conditions: route intraperitoneal
Mus musculus [22] = test: Net log cell kill was determined after injecting 60 mg/kg intraperitoneally in CD2F1 mice; assay type: functional; conditions: route intraperitoneal
Mus musculus [23] = test: Ratio of treated to that of untreated tumor-bearing control animals at 480 mg/kg intraperitoneally in CD2F1 mice was determined; assay type: functional; conditions: route intraperitoneal
Mus musculus [24] = test: Toxicity day survivors was determined by the ratio of animals survived to that of test animals at 60 mg/kg intraperitoneally in CD2F1 mice; 6/6; assay type: organism-based; set-up: dose 60 mg/kg, route intraperitoneal; conditions: in vivo, ip
Mus musculus [25] = test: Toxicity day survivors was determined by the ratio of animals survived to that of test animals at 480 mg/kg intraperitoneally in CD2F1 mice; 6/6; assay type: organism-based; set-up: dose 480 mg/kg, route intraperitoneal; conditions: in vivo, ip
Mus musculus [26] = test: Body weight change of test animals to that of control was determined after injection at 120 mg/kg intraperitoneally in CD2F1 mice; assay type: functional; conditions: route intraperitoneal
Mus musculus [27] = test: Net log cell kill was determined after injecting 120 mg/kg intraperitoneally in CD2F1 mice; assay type: functional; conditions: route intraperitoneal
Mus musculus [28] = test: Toxicity day survivors was determined by the ratio of animals survived to that of test animals at 240 mg/kg intraperitoneally in CD2F1 mice; 6/6; assay type: organism-based; set-up: dose 240 mg/kg, route intraperitoneal; conditions: in vivo, ip
Mus musculus [29] = test: Body weight change of test animals to that of control was determined after injection at 240 mg/kg intraperitoneally in CD2F1 mice; assay type: functional; conditions: route intraperitoneal
Mus musculus [30] = test: Net log cell kill was determined after injecting 480 mg/kg intraperitoneally in CD2F1 mice; assay type: functional; conditions: route intraperitoneal
Mus musculus [31] = test: Toxicity day survivors was determined by the ratio of animals survived to that of test animals at 120 mg/kg intraperitoneally in CD2F1 mice; 6/6; assay type: organism-based; set-up: dose 120 mg/kg, route intraperitoneal; conditions: in vivo, ip
Mus musculus [32] = test: Ratio of treated to that of untreated tumor-bearing control animals at 60 mg/kg intraperitoneally in CD2F1 mice was determined; assay type: functional; conditions: route intraperitoneal
Mus musculus [33] = test: Ratio of treated to that of untreated tumor-bearing control animals at 120 mg/kg intraperitoneally in CD2F1 mice was determined; assay type: functional; conditions: route intraperitoneal
Mus musculus [34] = test: Toxicity day survivors was determined by the ratio of animals survived to that of test animals at 30 mg/kg intraperitoneally in CD2F1 mice; 6/6; assay type: organism-based; set-up: dose 30 mg/kg, route intraperitoneal; conditions: in vivo, ip
Mus musculus [35] = organism: Mus musculus; test: Ratio of treated to that of untreated tumor-bearing control animals was determined; assay type: functional
Mus musculus [36] = test: Ratio of treated to that of untreated tumor-bearing control animals 30 mg/kg intraperitoneally in CD2F1 mice was determined; assay type: functional; conditions: route intraperitoneal
Mus musculus [37] = test: Body weight change of test animals to that of control was determined after injection at 30 mg/kg intraperitoneally in CD2F1 mice; assay type: functional; conditions: route intraperitoneal
Mus musculus [38] = test: Net log cell kill was determined after injecting 30 mg/kg intraperitoneally in CD2F1 mice; assay type: functional; conditions: route intraperitoneal

Row | Structure (SMILES) | TDS (Mus musculus [5]) | T-C (Mus musculus [7]) | T-C (Mus musculus [8]) | T/C (Mus musculus [12]) | KE (Mus musculus [17]) | KE (Mus musculus [19]) | T/C (Mus musculus [20]) | KE (Mus musculus [22]) | TDS (Mus musculus [24]) | T-C (Mus musculus [26]) | KE (Mus musculus [27]) | TDS (Mus musculus [28]) | T-C (Mus musculus [29]) | TDS (Mus musculus [31]) | T/C (Mus musculus [33]) | other results
1 | CNC(=O)OCc1c(COC(=O)NC)c2n(c1C)-c1ccc(OC)cc1CCC2 | 6 | -1.2 g | -2.8 g | 144% | 0.27 | – | – | – | – | – | – | – | – | – | – | TDS (Mus musculus [1]): 6; T-C (Mus musculus [2]): -1.3 g; KE (Mus musculus [3]): -0.06; T/C (Mus musculus [4]): 125%; KE (Mus musculus [6]): 0.55; T-C (Mus musculus [9]): -1 g; TDS (Mus musculus [10]): 6; T-C (Mus musculus [11]): -1.6 g; TDS (Mus musculus [13]): 6; KE (Mus musculus [14]): -0.74; T/C (Mus musculus [15]): 135%; T/C (Mus musculus [16]): 147%; TDS (Mus musculus [18]): 4
2 | CC(C)NC(=O)OCc1cn2c(c1COC(=O)NC(C)C)-c1cc(Cl)c(Cl)cc1CC2 | – | – | -0.4 g | – | – | 0.1 | 137% | -1.54 | 6 | -2.2 g | -0.68 | 6 | -2.3 g | 6 | 130% | T-C (Mus musculus [21]): -3.6 g; T/C (Mus musculus [23]): 185%; TDS (Mus musculus [25]): 6; KE (Mus musculus [30]): 5.05; T/C (Mus musculus [32]): 86%
3 | COc1ccc2c(ccc3c(COC(=O)NC(C)C)c(COC(=O)NC(C)C)c(C)n32)c1 | 6 | -0.1 g | 0.1 g | 109% | -1.47 | 1.19 | 154% | -0.3 | 6 | -0.6 g | -0.12 | 6 | -3.5 g | 6 | 131% | TDS (Mus musculus [34]): 6; T/C (Mus musculus [35]): 128%; T/C (Mus musculus [36]): 112%; T-C (Mus musculus [37]): 0 g; KE (Mus musculus [38]): -0.42
